Measurements published in US20100179188A1, “NITROXIDE RADICAL AS TREATMENT FOR NEURODEGENERATION” (Office of Technology Transfer, NIH, priority 2007, published 2010).

Legend:
IRP1 = experiment: Western blot of IRP1 protein in brain-region lysates of IRP2−/− mice; assay type: in vivo; conditions: cerebellum, brain-stem and forebrain of IRP2−/− mice, Tempo1 diet vs control diet
Method: Diet: The mice were weaned 3-4 weeks after their birth. Immediately after weaning, mice were maintained on either a Tempo1-supplemented or control diet. In the Tempo1-supplemented diet, powdered Tempo1 was uniformly mixed with bacon-flavored mouse chow by a “cold press” technique (Bio-Serv, Frenchtown, N.J., USA) at a concentration of 10 mg/g of food. Bacon-flavored chow without Tempo1 was used as the control diet.
Tissue and lysate preparation: Animals were euthanized and tissues were frozen in liquid nitrogen immediately after harvesting, and stored at −80° C. under argon. Experiments were performed on tissues that were pulverized in liquid N2-cooled mortars in an anaerobic chamber, and then lysed in lysis buffer that was deaerated by cyclic freezethaw and air-removal with argon. […]
Lysates made from various brain regions of IRP2−/− mice that were maintained on a control diet or on a Tempo1-supplemented diet were analyzed for IRE binding activity of IRP1 and for TfR1, IRP1, and actin protein levels by gel-shift assay and Western blot. […] FIG. 3b is a quantification of the results as intensity of the bands relative to the control, represented here as 100%. Quantification was performed with the IQMac (IRP1 activity) or NIH Image (protein levels) program. Error bars represent the standard deviation calculated from the results of two different sets of animals.

cytosolic aconitase = biological target: T1, cytosolic aconitase (Mus musculus, UniProt P28271); experiment: In-gel aconitase assay in mouse embryonic fibroblast lysates, cytosolic aconitase; assay type: cell-based
T1 construct: Embryonic fibroblasts of 13-day old embryos were isolated from wild type, IRP1−/− mice and IRP2−/− mice; endogenous in cells; host or cells: mouse embryonic fibroblasts (wild type and IRP2−/−)
T1 sequence (P28271 1-889): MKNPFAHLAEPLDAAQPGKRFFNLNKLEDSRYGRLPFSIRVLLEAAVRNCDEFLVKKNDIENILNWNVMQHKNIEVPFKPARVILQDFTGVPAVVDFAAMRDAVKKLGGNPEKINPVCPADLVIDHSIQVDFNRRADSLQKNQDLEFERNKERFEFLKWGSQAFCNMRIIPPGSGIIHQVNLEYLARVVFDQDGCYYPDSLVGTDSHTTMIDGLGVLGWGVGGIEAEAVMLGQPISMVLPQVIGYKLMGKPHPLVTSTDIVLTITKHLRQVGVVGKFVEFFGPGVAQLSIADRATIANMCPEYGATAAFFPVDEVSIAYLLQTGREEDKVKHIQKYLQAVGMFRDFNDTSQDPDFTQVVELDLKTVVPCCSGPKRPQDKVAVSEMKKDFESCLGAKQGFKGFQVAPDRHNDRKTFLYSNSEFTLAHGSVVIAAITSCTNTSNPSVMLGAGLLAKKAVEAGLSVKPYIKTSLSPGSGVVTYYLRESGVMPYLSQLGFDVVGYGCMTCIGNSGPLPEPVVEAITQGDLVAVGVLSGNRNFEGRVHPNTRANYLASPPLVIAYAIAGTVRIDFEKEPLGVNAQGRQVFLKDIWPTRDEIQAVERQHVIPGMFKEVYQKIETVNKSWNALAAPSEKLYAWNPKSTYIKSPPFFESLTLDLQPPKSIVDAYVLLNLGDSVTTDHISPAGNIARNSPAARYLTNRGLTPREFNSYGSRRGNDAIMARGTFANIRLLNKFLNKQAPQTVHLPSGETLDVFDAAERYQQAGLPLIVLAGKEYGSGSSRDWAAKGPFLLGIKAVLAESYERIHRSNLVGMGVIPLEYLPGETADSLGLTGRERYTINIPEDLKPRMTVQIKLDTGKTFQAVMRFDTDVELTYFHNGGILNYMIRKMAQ
Method: Cells: Embryonic fibroblasts of 13-day old embryos were isolated from wild type, IRP1−/− mice and IRP2−/− mice as described in LaVaute et al. supra. Myc-tagged HEK 293 Tet-on cell line, in which IRP2 expression was inducible, was prepared and cultured as described Bourdon et al., Blood Cells Mol Dis, 31, 247-255 (2003). Erythroblasts were harvested from bone marrow and purified as described in Cooperman et al., Blood, 106, 1084-1091 (2005).
Aconitase assay: Aconitase activity gels for human lysates were performed as described in Tong et al., infra, and aconitase activity gels for mouse lysate were performed with the following modifications. The gel was composed of a separating gel containing 6% acrylamide, 132 mM Tris base, 66 mM borate, 3.6 mM citrate, and a stacking gel containing 4% acrylamide, 66 mM Tris base, 33 mM borate, 3.6 mM citrate. The running buffer contains 25 mM Tris pH 8.3, 96 mM glycine, and 3.6 mM citrate. Electrophoresis were carried out at 170 V at 4° C. Spectral aconitase activity was measured by following the method of Fillebeen et al., infra, using cis-aconitate as the substrate.
To confirm that nitroxide radicals activate IRP1 binding by disassembly of the iron-sulfur cluster, we performed in-gel aconitase assays to determine whether Tempo1 decreased the activity of cytosolic aconitase. […] The band that represented the cytosolic aconitase was readily identified by its absence in lysates from IRP1−/− cells. […]
To determine whether the effect of Tempo1 on IRP1 activity was kinetically consistent with oxidative disassembly of the iron sulfur cluster, the effect of Tempo1 on aconitase activity was compared to that of the iron chelator, deferiprone (DFO), which activates IRE-binding activity of IRP1 by limiting de novo synthesis and repair of the iron sulfur cluster in IRP1. […] Recovery of aconitase activity was assessed in wild type and IRP2−/− cells.

CC1(C)CC(O)CC(C)(C)N1[O] [Tempo1]
IRP1 protein levels (IRP1): did not significantly change | activity of cytosolic aconitase (cytosolic aconitase; lysates from WT and IRP2−/− embryonic fibroblasts): diminished | time to reversal of the loss of cytosolic aconitase activity after removal (cytosolic aconitase; mouse embryonic fibroblasts, 16 hours treatment, then fresh unsupplemented media): ≤ 2 h
